Test system: 324938-238-R-J1-PDC complex spheroid viability
Test: Anticancer human tumor 324938-238-R-J1-PDC patient-derived bladder carcinoma cell line growth inhibition
Details: for IC50: curve of first compound; for viability, T/C: stronger effect = lower value
In short: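 Drug combinations with the LSD1 inhibitor iadademstat tested on tumor cells co-cultured as spheroids with endothelial cells and mesenchymal stem cells. Concentrations descended in half-log increments from clinical Cmax or 10 microM.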

[1] = second compound 0.1 µM, first compound 0.0316 µM
[2] = second compound 0.1 µM, first compound 0.1 µM
[3] = second compound 0.1 µM, first compound 0.316 µM
[4] = second compound 0.1 µM, first compound 1 µM
[5] = second compound 0.1 µM, first compound 3.16 µM
[6] = second compound 0.1 µM, first compound 10 µM
[7] = second compound 0.316 µM, first compound 0.0316 µM
[8] = second compound 0.316 µM, first compound 0.1 µM
[9] = second compound 0.316 µM, first compound 0.316 µM
[10] = second compound 0.316 µM, first compound 1 µM
[11] = second compound 0.316 µM, first compound 3.16 µM
[12] = second compound 0.316 µM, first compound 10 µM
[13] = second compound 1 µM, first compound 0.0316 µM
[14] = second compound 1 µM, first compound 0.1 µM
[15] = second compound 1 µM, first compound 0.316 µM
[16] = second compound 1 µM, first compound 1 µM
[17] = second compound 1 µM, first compound 3.16 µM
[18] = second compound 1 µM, first compound 10 µM
[19] = second compound 3.16 µM, first compound 0.0316 µM
[20] = second compound 3.16 µM, first compound 0.1 µM
[21] = second compound 3.16 µM, first compound 0.316 µM
[22] = second compound 3.16 µM, first compound 1 µM
[23] = second compound 3.16 µM, first compound 3.16 µM
[24] = second compound 3.16 µM, first compound 10 µM
[25] = second compound 10 µM, first compound 0.0316 µM
[26] = second compound 10 µM, first compound 0.1 µM
[27] = second compound 10 µM, first compound 0.316 µM
[28] = second compound 10 µM, first compound 1 µM
[29] = second compound 10 µM, first compound 3.16 µM
[30] = second compound 10 µM, first compound 10 µM
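Note: spheroids also contain HUVEC and human MSCs and agents combined with iadademstat; spheroids exposed to agents for 7 days before readout.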

Row | Structure (SMILES) | IC50 (second compound 0.1 µM) | IC50 (second compound 0.316 µM) | IC50 (second compound 1 µM) | IC50 (second compound 3.16 µM) | IC50 (second compound 10 µM) | viability, T/C [1] | viability, T/C [2] | viability, T/C [3] | viability, T/C [4] | viability, T/C [5] | viability, T/C [6] | viability, T/C [7] | viability, T/C [8] | viability, T/C [9] | viability, T/C [10] | viability, T/C [11] | viability, T/C [12] | viability, T/C [13] | viability, T/C [14] | viability, T/C [15] | also measured
1 | CC(C)c1c(-c2ccccc2)nc2c(C#N)c[nH]n2c1=O + NC1CCC(NC2CC2c2ccccc2)CC1 | > 10000 nM | > 10000 nM | > 10000 nM | > 10000 nM | > 10000 nM | 69.7% | 90% | 85.2% | 89.2% | 82.2% | 74.6% | 83% | 84.1% | 84.4% | 84.8% | 81.4% | 78.7% | 87% | 90% | 78.2% | viability, T/C [16]: 84.9%; viability, T/C [17]: 81.6%; viability, T/C [18]: 80.9%; viability, T/C [19]: 72.8%; viability, T/C [20]: 78.9%; viability, T/C [21]: 87.7%; viability, T/C [22]: 80.6%; viability, T/C [23]: 80.1%; viability, T/C [24]: 74.3%; viability, T/C [25]: 66.5%; viability, T/C [26]: 70.7%; viability, T/C [27]: 75.9%; viability, T/C [28]: 75.1%; viability, T/C [29]: 65.6%; viability, T/C [30]: 77.9%
2 | COc1ccc([C@@H](O)c2cc(-c3ncnc4cc(N5CCOCC5)ccc34)c(F)cc2Cl)nn1 + NC1CCC(NC2CC2c2ccccc2)CC1 | 1750 nM | 1870 nM | 1330 nM | 944 nM | 1090 nM | 81.4% | 70.8% | 63.3% | 61.1% | 42.8% | 26.8% | 80.8% | 76.7% | 61.4% | 58% | 47.7% | 28.9% | 72.9% | 73.4% | 65.2% | viability, T/C [16]: 50.3%; viability, T/C [17]: 42.6%; viability, T/C [18]: 28.5%; viability, T/C [19]: 70%; viability, T/C [20]: 78%; viability, T/C [21]: 59.3%; viability, T/C [22]: 48.4%; viability, T/C [23]: 38.3%; viability, T/C [24]: 26.4%; viability, T/C [25]: 64.8%; viability, T/C [26]: 76.5%; viability, T/C [27]: 61.6%; viability, T/C [28]: 50.2%; viability, T/C [29]: 37%; viability, T/C [30]: 26%
